Results: patent publication US20060178323A1, “Methods for the treatment of chronic pain and compositions therefor” (priority 2002, published 2006)

Test system: mechanical hyperalgesia in the Seltzer model of neuropathic pain in the rat
Assay: Seltzer model, established neuropathic hyperalgesia, repeated administration of Compound A
Type: in vivo
Excerpt: Two animal models of chronic neuropathic pain may be used that involve some form of peripheral nerve damage. In the Seltzer model (Seltzer et al. (1990) Pain 43: 205-218) rats are anaesthetised and a small incision made mid-way up one thigh (usually the left) to expose the sciatic nerve. The nerve is carefully cleared of surrounding connective tissues at a site near the trochanter just distal to the point at which the posterior biceps semitendinosus nerve branches off the common sciatic nerve. A 7-0 silk suture is inserted into the nerve with a ⅜ curved, reversed-cutting mini-needle, and tightly ligated so that the dorsal ⅓ to ½ of the nerve thickness is held within the ligature. The muscle and skin are closed with sutures and clips and the wound dusted with antibiotic powder. In sham animals the sciatic nerve is exposed but not ligated and the wound closed as in nonsham animals.
In all chronic pain models (inflammatory and neuropathic) mechanical hyperalgesia is assessed by measuring paw withdrawal thresholds of both hindpaws to an increasing pressure stimulus using an Analgesymeter (Ugo-Basile, Milan). Mechanical allodynia is assessed by measuring withdrawal thresholds to non-noxious mechanical stimuli applied with von Frey hairs to the plantar surface of both hindpaws. Thermal hyperalgesia is assessed by measuring withdrawal latencies to a noxious thermal stimulus applied to the underside of each hindpaw. With all models, mechanical hyperalgesia and allodynia and thermal hyperalgesia develop within 1-3 days following surgery and persist for at least 50 days. For the assays described herein, drugs may be applied before and after surgery to assess their effect on the development of hyperalgesia, particularly approximately 14 days following surgery, to determine their ability to reverse established hyperalgesia.
The percentage reversal of hyperalgesia is calculated as follows: [formula] In the experiments disclosed herein, Wistar rats (male) are employed in pain models described above. Rats weigh approximately 120-140 grams at the time of surgery. All surgery is performed under enflurane/O2 inhalation anaesthesia. In all cases the wound is closed after the procedure and the animal allowed to recover. In all pain models employed, after a few days in all but the sham operated animals, a marked mechanical and thermal hyperalgesia and allodynia develops in which there is a lowering of pain threshold and an enhanced reflex withdrawal response of the hind-paw to touch, pressure or thermal stimuli. […] In the majority of animals the toes of the affected hind paw are held together and the foot turned slightly to one side; in some rats the toes are also curled under. The gait of the ligated rats varies, but limping is uncommon. […] The rats tend to be very sensitive to touch and may vocalise. Otherwise the general health an condition of the rats is good.
The effect of Compound A on mechanical hyperalgesia and allodynia is examined in the Seltzer model of neuropathic pain in the rat (Seltzer et al, 1990) as described above. With this model mechanical hyperalgesia and allodynia is induced in the ipsilateral (ligated) hindpaw approximately 1 day following surgery and persists for some weeks. Mechanical hyperalgesia is assessed by measuring paw withdrawal thresholds of both hindpaws to an increasing pressure stimulus using an Analgesymeter (Ugo-Basile, Milan). Mechanical allodynia is assessed by measuring withdrawal thresholds to non-noxious mechanical stimuli applied with von Frey hairs to the plantar surface of both hindpaws.
Inhibition of MMP7 may also reduce established mechanical hyperalgesia. 7 days following ligation ipsilateral paw withdrawal thresholds are reduced to approximately 65 g compared to contralteral readings of approximately 100 g, indicating mechanical hyperalgesia. Compound A (3 and 30 mg/kg) or vehicle (20% cremaphor/water) is then administered orally twice daily for 10 days. […]

## CC[C@H](C(=O)NO)[C@H](C(=O)N1CCCC[C@H]1C(=O)NC(C)C)c1ccc(Cl)cc1 [Compound A, (S)-1-[(2S,3S)-2-(4-Chloro-phenyl)-3-hydroxycarbamoyl-pentanoyl]-piperidine-2-carboxylic acid isopropylamide]
3 mg/kg orally twice daily for 10 days starting 7 days after ligation, day 3 of study
  ipsilateral paw withdrawal threshold: 67.5 ± 2.5 g
3 mg/kg orally twice daily for 10 days starting 7 days after ligation, day 4 of study
  ipsilateral paw withdrawal threshold: 80.0 ± 2.2 g
3 mg/kg orally twice daily for 10 days starting 7 days after ligation, day 5 of study
  ipsilateral paw withdrawal threshold: 80.0 ± 3.4 g
3 mg/kg orally twice daily for 10 days starting 7 days after ligation, day 6 of study
  ipsilateral paw withdrawal threshold: 80.8 ± 2.4 g
3 mg/kg orally twice daily for 10 days starting 7 days after ligation, day 7 of study
  ipsilateral paw withdrawal threshold: 80.8 ± 2.4 g
3 mg/kg orally twice daily for 10 days starting 7 days after ligation, day 8 of study
  ipsilateral paw withdrawal threshold: 80.8 ± 2.4 g
3 mg/kg orally twice daily for 10 days starting 7 days after ligation, day 9 of study
  ipsilateral paw withdrawal threshold: 75.8 ± 3.5 g
3 mg/kg orally twice daily for 10 days starting 7 days after ligation, day 10 of study
  ipsilateral paw withdrawal threshold: 81.7 ± 3.1 g
3 mg/kg orally twice daily for 10 days starting 7 days after ligation, day 11 of study
  ipsilateral paw withdrawal threshold: 76.7 ± 2.1 g
3 mg/kg orally twice daily for 10 days starting 7 days after ligation, day 12 of study
  ipsilateral paw withdrawal threshold: 78.3 ± 2.5 g
3 mg/kg orally twice daily for 10 days starting 7 days after ligation, day 13 of study
  ipsilateral paw withdrawal threshold: 79.2 ± 2.4 g
3 mg/kg orally twice daily for 10 days starting 7 days after ligation, day 14 of study
  ipsilateral paw withdrawal threshold: 75.8 ± 3.5 g
3 mg/kg orally twice daily for 10 days starting 7 days after ligation, day 15 of study
  ipsilateral paw withdrawal threshold: 76.7 ± 2.5 g
3 mg/kg orally twice daily for 10 days starting 7 days after ligation, day 18 of study
  ipsilateral paw withdrawal threshold: 75.8 ± 2.4 g
3 mg/kg orally twice daily for 10 days starting 7 days after ligation, day 21 of study
  ipsilateral paw withdrawal threshold: 74.2 ± 1.5 g
3 mg/kg orally twice daily for 10 days starting 7 days after ligation, day 23 of study
  ipsilateral paw withdrawal threshold: 70.0 ± 1.8 g
3 mg/kg orally twice daily for 10 days starting 7 days after ligation, predose
  ipsilateral paw withdrawal threshold: 65.8 ± 0.8 g
30 mg/kg orally twice daily for 10 days starting 7 days after ligation, day 1 of study
  ipsilateral paw withdrawal threshold: 68.3 ± 2.1 g
30 mg/kg orally twice daily for 10 days starting 7 days after ligation, day 2 of study
  ipsilateral paw withdrawal threshold: 68.3 ± 1.7 g
30 mg/kg orally twice daily for 10 days starting 7 days after ligation, day 3 of study
  ipsilateral paw withdrawal threshold: 71.7 ± 2.1 g
30 mg/kg orally twice daily for 10 days starting 7 days after ligation, day 4 of study
  ipsilateral paw withdrawal threshold: 78.3 ± 4.8 g
30 mg/kg orally twice daily for 10 days starting 7 days after ligation, day 5 of study
  ipsilateral paw withdrawal threshold: 84.2 ± 2.4 g
30 mg/kg orally twice daily for 10 days starting 7 days after ligation, day 6 of study
  ipsilateral paw withdrawal threshold: 84.2 ± 4.4 g
30 mg/kg orally twice daily for 10 days starting 7 days after ligation, day 7 of study
  ipsilateral paw withdrawal threshold: 83.3 ± 5.4 g
30 mg/kg orally twice daily for 10 days starting 7 days after ligation, day 8 of study
  ipsilateral paw withdrawal threshold: 83.3 ± 2.5 g
30 mg/kg orally twice daily for 10 days starting 7 days after ligation, day 9 of study
  ipsilateral paw withdrawal threshold: 79.2 ± 3.0 g
30 mg/kg orally twice daily for 10 days starting 7 days after ligation, day 10 of study
  ipsilateral paw withdrawal threshold: 85.0 ± 2.6 g
30 mg/kg orally twice daily for 10 days starting 7 days after ligation, day 11 of study
  ipsilateral paw withdrawal threshold: 82.5 ± 3.4 g
30 mg/kg orally twice daily for 10 days starting 7 days after ligation, day 12 of study
  ipsilateral paw withdrawal threshold: 80.8 ± 2.4 g
30 mg/kg orally twice daily for 10 days starting 7 days after ligation, day 13 of study
  ipsilateral paw withdrawal threshold: 80.0 ± 2.6 g
30 mg/kg orally twice daily for 10 days starting 7 days after ligation, day 14 of study
  ipsilateral paw withdrawal threshold: 78.3 ± 1.7 g
30 mg/kg orally twice daily for 10 days starting 7 days after ligation, day 15 of study
  ipsilateral paw withdrawal threshold: 78.3 ± 2.5 g
30 mg/kg orally twice daily for 10 days starting 7 days after ligation, day 18 of study
  ipsilateral paw withdrawal threshold: 77.5 ± 2.1 g
30 mg/kg orally twice daily for 10 days starting 7 days after ligation, day 21 of study
  ipsilateral paw withdrawal threshold: 81.7 ± 2.5 g
30 mg/kg orally twice daily for 10 days starting 7 days after ligation, day 23 of study
  ipsilateral paw withdrawal threshold: 77.5 ± 2.1 g
30 mg/kg orally twice daily for 10 days starting 7 days after ligation, predose
  ipsilateral paw withdrawal threshold: 66.7 ± 2.1 g
After 4 days of drug treatment, 3 and 30 mg/kg orally twice daily
  ipsilateral paw withdrawal thresholds compared to vehicle treated animals: significant increase in ipsilateral paw withdrawal thresholds
At the higher dose (30 mg/kg)
  persistence of increased thresholds following cessation of compound administration: up to 2 weeks
